Assay results taken from article PMC10302146, “Dual Anta-Inhibitors Targeting Protein Kinase CK1δ and A2A Adenosine Receptor Useful in Neurodegenerative Disorders” (Molecules, 2023).

Columns and labels:
N13 microglial cells [1] = experiment: N13 cell viability (CellTiter 96 AQueous One, MTS), ligands alone; assay type: cell-based; conditions: absence of CK cocktail
Description: Starting from these observations, since this double effect could be a suitable strategy for the treatment of chronic neurodegenerative diseases, in which neuroinflammation plays a crucial role, these compounds were tested on an in vitro model of neuroinflammation in comparison with the reference compounds. The experiments were performed using N13 microglial cells. The colorimetric method CellTiter 96® AQueous One Solution Cell Proliferation assay was used to determine the number of live cells in cytotoxicity or proliferation assays. The tetrazole compound MTS was bio-reduced by the cells into formazan, a colored product soluble in the cellular medium. The percentage of cell viability was analyzed through an absorbance reading at 492 nm. The concentrations of ligands were chosen based on the results of binding assays. Specifically, lower, similar, and higher concentrations than the Ki value were used.
Experiments were performed in triplicate.

N13 microglial cells [2] = experiment: N13 cell viability, CK cocktail 48 h pretreatment then ligand (A2AAR antagonist protocol); conditions: for effect after CK cocktail damage in the presence of NECA: compound 1 7.5 µM, compound 2 4.5 µM, NECA 10 µM; for effect after CK cocktail damage in the presence of NECA / counteraction of CK cocktail effect (cell viability): 60 min; for effect after CK cocktail damage in the presence of NECA / rescue of inflammatory damage (cell viability): after CK cocktail 20 ng/mL 48 h; for rescue of inflammatory damage (cell viability) / counteraction of CK cocktail effect (cell viability): lower concentrations (0.625 µM compound 1, 0.375 µM compound 2); for rescue of inflammatory damage (cell viability): 30 min; for counteraction of CK cocktail effect (cell viability): after CK cocktail 48 h
Description: Given the nature of compounds, dual A2A/CK1δ anta-inhibitors, their neuroprotective effect against a neuroinflammatory insult was investigated following two different approaches aimed at studying the antagonist activity on the A2AAR and the inhibitor effect on CK1δ. […] The concentrations used were 35, 65, and 400 µM at 60 min of incubation.
N13 cells were plated in 96-well plates at the confluence of 1 × 10^4 cells/well and incubated overnight. Cells were divided into two groups in order to study the activity of compounds on A2AAR and CK1δ (Scheme 1). […] Cells of the second group were pretreated with 2 µL at different concentrations of understudy ligand, or the reference compound PF670462, for 30 or 60 min and then with further addition of a proinflammatory cocktail of cytokines for 48 h (Scheme 1). After treatment, 20 µL of CellTiter 96® AQueous One Solution Reagent was added to each well to a final volume of 100 µL. After 1 h of incubation, absorbance was measured at 492 nm in the microplate reader GENiosPro. Cell viability was estimated as the relation between the OD of treated cells and the OD of untreated cells in percentage. An untreated control and a control with the solvent were run. Experiments were performed in triplicate.

N13 microglial cells [3] = experiment: N13 cell viability, ligand pretreatment 60 min then CK cocktail 48 h (CK1δ inhibition protocol); assay type: cell-based
N13 cell line = experiment: Griess assay, nitrite production (antioxidant effect); assay type: cell-based; conditions: for antioxidant activity (Griess Reagent System): compound 1 7500 nM, incubated for 1 hr, vs. ZM241385 10 nM
Text: In addition, since oxidative stress has received extensive attention as one important entry point in the pathogenesis of neurodegenerative diseases, the potential antioxidant profile of compounds 1 and 2 was investigated. Oxidative stress and neuroinflammation play synergistic roles in the promotion of neurodegenerative disease progression. During a CNS insult, there is an activation of microglial cells, which stimulate immune responses to instigate tissue repair. If the triggering cause of the immune response is eradicated, the immune response resolves, but if the initial stress persists, it will lead to an overproduction of neurotoxic factors such as chemokines and proinflammatory cytokines such as Tumor Necrosis Factor-α (TNF-α) and Interleukin-1β (IL-1β). This pathological state will lead to an overproduction of ROS and a state of oxidative stress. High levels of ROS inactivate or damage proteins, leading to cellular degeneration and death. Furthermore, ROS can activate proinflammatory pathways, further promoting a harmful environment for vulnerable neurons. In light of this, the potential antioxidant capacity of compounds was studied. […] The combination of anti-inflammatory and antioxidant activities makes compound 2 particularly appealing in counteracting two of the factors involved in the pathogenesis of neurodegenerative pathologies.
The N13 cell line was introduced into a 96-well UV-VIS transparent plate at a population of 1 × 10^4 cells per well in 98 μL of DMEM and incubated overnight. […] After 24 h of incubation, the media from each well was transferred into another 96-well plate, and then 50 µL of the sulphanilamide solution was placed into the wells. After 10 min of incubation at room temperature (rt), 50 µL of the NED solution was dispensed to all wells, and the plate was incubated at rt for an additional 5–10 min. After half an hour, absorbance was measured in the microplate reader GENiosPro using a 520–550 nm filter. All measurements were reproduced in 3–5 replicates. The nitric oxide formation was investigated by measuring nitrite (NO^2−), which is one of two primary breakdown products of NO. A nitrite standard reference curve was used for quantitative evaluation of the concentration of NO^2− in samples.

human recombinant A1AR = molecular target: human recombinant A1AR; design: method as in PMID 37259317; conditions: [3H]CCPA, membranes from CHO cells stably transfected; means ± standard errors; read-out: KiA1; cited from earlier work
human recombinant A2AAR = molecular target: human recombinant A2AAR; design: method as in PMID 37259317; conditions: [3H]NECA, membranes from CHO cells stably transfected; means ± standard errors; read-out: KiA2A; cited from earlier work
human recombinant A3AR = molecular target: human recombinant A3AR; design: method as in PMID 37259317; conditions: [3H]HEMADO, membranes from CHO cells stably transfected; means ± standard errors; read-out: KiA3; cited from earlier work
CK1δ = test system: CK1δ; design: method as in PMID 37259317; conditions: cited from earlier work; for IC50: enzymatic inhibition

Structure (SMILES) | effect after CK cocktail damage in the presence of NECA (N13 microglial cells [2]) | rescue of inflammatory damage (cell viability) (N13 microglial cells [2]) | counteraction of CK cocktail effect (cell viability) (N13 microglial cells [2]) | antioxidant activity (Griess Reagent System) (N13 cell line; compound 2 4500 nM) | Ki (human recombinant A1AR) [µM] | Ki (human recombinant A2AAR) [nM] | Ki (human recombinant A3AR) [nM] | % Residual Activity at 10 μM ± sd (CK1δ) [%] | % Residual Activity at 40 μM ± sd (CK1δ) [%] | IC50 (CK1δ) [nM] | also measured
CN(C)c1nc(NCc2nc3ccccc3[nH]2)c2ncn(C3CCCC3)c2n1 [compound 2, N^6-methyl-(2-benzimidazolyl)-2-dimethyamino-9-cyclopentyladenine] | significantly lower than that obtained in the absence of NECA | unable to rescue the inflammatory damage | able to counteract the effect of the CK cocktail | important antioxidant effect similar to that of the reference compound | 2.9 ± 0.648 | 76.2 ± 173 | 1150 ± 107 | 34 ± 5.0 | 22 ± 1.0 | 590 ± 200 | cell viability vs. control (N13 microglial cells [1]; 0.375 µM, 30 min): 86% ± 1.2; cell viability vs. control (N13 microglial cells [1]; 4.5 µM, 60 min): 109% ± 1.4; cell viability vs. control (N13 microglial cells [1]; 0.375 and 0.75 µM, 60 min): decrease in cell viability similar to 30 min of incubation; cell viability vs. control (N13 microglial cells [1]; all concentrations (0.375, 0.75, 4.5 µM), 30 min): decrease in cell viability; cell viability (N13 microglial cells [2]): 125% ± 3.1; cell viability (N13 microglial cells [3]; 25 µM 60 min before CK cocktail 48 h, CK cocktail alone 79% ± 1.1 vs. control (Figure 6)): 94% ± 2.2; effect of NECA on the neuroprotective effect of the compound (N13 microglial cells [3]; compound 25 µM 60 min before CK cocktail 48 h, then NECA 10 µM): ineffective; amount of nitrite produced vs. control (N13 cell line; 4500 nM): inferior to that revealed in the control; compensation of oxidative stress caused by the CK cocktail (N13 cell line; compound 2 4500 nM, ZM241385 10 nM): successfully compensated
CN(C)c1nc(N)c2ncn(C3CCCC3)c2n1 [compound 1, 9-Cyclopentyl-N2,N2-dimethyl-9H-purine-2,6-diamine] | significantly lower than that obtained in the absence of NECA | unable to rescue the inflammatory damage | able to counteract the effect of the CK cocktail | no significant antioxidant activity | 3.34 ± 0.658 | 123 ± 2 | 2880 ± 695 | 27 ± 4.0 | 19 ± 9.4 | 1750 ± 200 | cell viability vs. control (N13 microglial cells [1]; 0.625 µM, 30 min): 112% ± 2.4; cell viability vs. control (N13 microglial cells [1]; 7.5 µM, 30 min): lower cell viability with respect to the control; cell viability vs. control (N13 microglial cells [1]; 7.5 µM, 60 min): cell viability similar to the control; viability at 7.5 µM (N13 microglial cells [2]; N13, 48 h, read-out: cell viability): 89%; viability at 40 µM (N13 microglial cells [3]; N13, 40 µM 60 min before CK cocktail 48 h, CK cocktail alone 79% ± 1.1 vs. control): 85%
